Structures can show the parent of a compound that is named as a salt.
How the values were obtained:
[1] = tested on: spontaneously hypertensive rats; test: hypotensive activity in spontaneously hypertensive rats (mean arterial blood pressure); type: in vivo, spontaneously hypertensive rats of the Okamoto strain; conditions: by gavage, 100 mg/kg or less, two doses 24 hours apart, measured 28 hours after the initial dose; starting average MABP 160±1.5 mm; number of rats in parentheses
Experimental: The novel compounds of the present invention are also active hypotensive agents and were tested for hypotensive activity by the method of P. S. Chan and D. Poorvin, Clinical and Experimental Hypertension, 1 (6), 817-830 (1979). Male, 16 week old, spontaneously hypertensive rats of the Okamoto strain, from Taconic Farms, Germantown, N.Y. having an average mean arterial blood pressure of 160±1.5 mm of mercury were used in the test. One to 3 rats were used per test compound. The rats were dosed by gavage with a test compound, suspended in 2% pre-boiled starch at a concentration of 50 mg/ml, at a dose of 100 mg/kg of body weight or less, with 0.9% sodium chloride loading at a dose of 25 ml/kg of body weight. A second identical dose of the test compound, without sodium chloride loading was given 24 hours later. At 28 hours after the initial dose, the mean arterial blood pressure (MABP) was measured by the method of Chan and Poorvir vide supra. The procedure was repeated in a second and third rat when necessary as specified in the referenced method.

thromboxane synthetase = biological target: T1, thromboxane synthetase (Rattus norvegicus, UniProt P49430); test: inhibition of thromboxane (TX) formation in platelets (TXB2 by radioimmunoassay); type: cell-based, Okamoto-Aoki spontaneously hypertensive rats (SHR); conditions: drug at 10^-4 M, 10 minutes at 37° C., washed SHR platelets, TXB2 RIA
T1 construct: The platelets were isolated by centrifuging the PRP for 10 minutes; endogenous in cells; host or cells: washed platelets from arterial blood of Okamoto-Aoki spontaneously hypertensive rats (Taconic Farms, Germantown, N.Y.)
T1 sequence (P49430 1-533): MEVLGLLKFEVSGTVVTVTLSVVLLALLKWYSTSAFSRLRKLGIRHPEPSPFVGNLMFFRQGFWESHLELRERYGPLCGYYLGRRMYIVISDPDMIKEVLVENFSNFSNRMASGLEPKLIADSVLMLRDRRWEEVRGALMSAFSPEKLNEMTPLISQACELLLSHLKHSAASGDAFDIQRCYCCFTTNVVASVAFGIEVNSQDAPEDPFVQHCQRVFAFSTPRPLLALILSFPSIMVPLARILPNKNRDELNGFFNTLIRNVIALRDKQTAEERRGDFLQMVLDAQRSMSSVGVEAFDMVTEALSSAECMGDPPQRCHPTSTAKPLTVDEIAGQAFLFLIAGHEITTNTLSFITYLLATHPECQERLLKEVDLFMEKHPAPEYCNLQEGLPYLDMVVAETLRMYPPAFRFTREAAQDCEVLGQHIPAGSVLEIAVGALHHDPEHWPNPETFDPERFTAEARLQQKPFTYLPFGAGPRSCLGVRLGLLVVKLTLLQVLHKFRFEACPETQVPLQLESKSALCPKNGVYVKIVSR
Experimental: From Okamoto-Aoki spontaneously hypertensive rats (SHR) (Taconic Farms, Germantown, N.Y.) between 19 and 24 weeks in age, under urethan anesthesia, […] of arterial blood was collected in one ml of 3.2% sodium citrate a polystyrene tube. The blood was diluted with 3 ml cold saline and centrifuged at room temperature for 15 minutes at 460×g. The platelet rich plasma (PRP) was separated. The platelets were isolated by centrifuging the PRP for 10 minutes at 1060×g nd were washed in 4 ml cold oxygenated Krebs phosphate buffer, pH 7.4. The chilled platelets recovered from centrifuging at 800×g for 10 minutes were resuspended in oxygenated Krebs phosphate buffer and diluted to contain 4.5-6.0×10^4 platelets/μl. The inhibition of thromboxane (TX) formation was studied by determining the concentration of thromboxane B2 (TXB2), the stable hydrolysis product of TXA2. Assay samples, prepared on ice, contained 200 μl platelet suspension, 50 μl saline, and 50 μl vehicle or drug under study at a concentration of 10^-4 M (with OKY-1581, UK-3724801, 1-benzylimidazole, and/or indometha standards). The samples were incubated for 10 minutes at 37° C. in a metabolic shaker. The reaction was terminated by immersing the tubes in an ice bath and adding 50 μl of 0.5M citric acid. The samples were centrifuged for 10 minutes in a refrigerated centrifuge and the supernatants thus obtained were decanted and stored at -20° C. The TXB2 content for each sample was determined by a direct radioimmunoassay (RIA) utilizing a TXB2 specific RIA kit purchased from New England Nuclear, Boston, Mass. and results expressed as pg TXB2 formed minute^-1 sample^-1, from which the percent inhibition of TXB2 formation was calculated.

ischemic myocardium = conditions: canines; cited from earlier work
[2] = tested on: coronary arteries of guinea pigs and rabbits; conditions: cited from earlier work

SMILES | MABP/mm Hg (no. of rats) [1] | inhibition at 100 µM (thromboxane synthetase) | also measured
O=C1c2cccc3cccc(c23)C(=O)N1CCCn1ccnc1 [2-[3(1 --H--imidazol-1-yl)propyl]-1 --H--benz[de]isoquinoline-1,3(2 --H)--dione] | 103 mm Hg | 89% | 
O=C1c2cccc3cccc(c23)C(=O)N1CCCn1cncn1 [2-[3-(1 --H--1,2,4-triazol-1-yl)-propyl]-1 --H--benz[de]isoquinoline-1,3(2 --H)--dione] |  | 96% | 
O=C1c2cccc3cccc(c23)C(=O)N1C(CCn1ccnc1)c1ccccc1 (stereo not shown) [2-[3-(1 --H--imidazol-1-yl)-1-phenyl-propyl]-1 --H--benz[de]isoquinoline-1,3(2 -- H)--dione] |  | 97% | 
CC(CN1C(=O)c2cccc3cccc(c23)C1=O)Cn1ccnc1 (stereo not shown) [2-[3-(1 --H--imidazol-1-yl)-2-methyl-propyl]-1 --H--benz[de]isoquinoline-1,3(2 --H)--dione] | 134 mm Hg | 99% | 
CC(CN1C(=O)c2cccc3cc([N+](=O)[O-])cc(c23)C1=O)Cn1ccnc1 (stereo not shown) [2-[3-(1 --H--imidazol-1-yl)-2-methyl-propyl]-5-nitro-1 --H--benz[de]-isoquinoline-1,3(2 --H)--dione] |  | 100% | 
CC(CCN1C(=O)c2cccc3cccc(c23)C1=O)n1ccnc1 (stereo not shown) [2-[3-(1 --H--imidazol-1-yl)butyl]-1 --H--benz[de]isoquinoline-1,3(2 --H)--dione] | 120 mm Hg | 97% | 
CC(CCN1C(=O)c2cccc3cc([N+](=O)[O-])cc(c23)C1=O)n1ccnc1 (stereo not shown) [2-[3-(1 --H--imidazol-1-yl)butyl]-5-nitro-1 --H--benz[de]isoquinoline-1,3(2 --H)--dione] |  | 100% | 
O=C1c2cccc3cc([N+](=O)[O-])cc(c23)C(=O)N1CCCn1ccnc1 [2-[3-(1 --H--imidazol-1-yl)propyl]-5-nitro-1 --H--benz[de]isoquinoline-1,3(2 --H)--dione] | 97 mm Hg | 100% | 
Cc1cn(CCCN2C(=O)c3cccc4cccc(c34)C2=O)cn1 [2-[3-(4-methyl-1 --H--imidazol-1-yl)-propyl]-1 --H--benz[de]isoquinoline-1,3(2 --H)--dione] |  | 98% | 
O=C1c2cccc3cccc(c23)C(=O)N1CCCCn1ccnc1 [2-[4-(1H-Imidazol-1-yl)butyl]-1H-benz-[de]isoquinoline-1,3(2H)-dione] | 106 mm Hg | 96% | 
O=C1c2cccc3cc([N+](=O)[O-])cc(c23)C(=O)N1CCCCn1ccnc1 [2-[4-(1H-Imidazol-1-yl)butyl]-5-nitro-1H-benz[de]isoquinoline-1,3(2H)-dione] | 123 mm Hg | 97% | 
O=C1c2cccc3cccc(c23)C(=O)N1CCCCc1cccnc1 [2-[4-(3-pyridinyl)butyl]-1 --H--benz[de]isoquinoline-1,3(2 --H)--dione] | 137 mm Hg | 98% | 
O=C1c2cccc3cccc(c23)C(=O)N1CCCCCn1ccnc1 [2-[5-(1 --H--imidazol-1-yl)pentyl)-1 --H--benz[de]isoquinoline-1,3(2 --H)--dione] |  | 100% | 
O=C1c2cccc3cc([N+](=O)[O-])cc(c23)C(=O)N1CCCCCn1ccnc1 [2-[5-(1 --H--imidazol-1-yl)pentyl)-5-nitro-1 --H--benz[de]isoquinoline-1,3(2 --H)--dione] |  | 98% | 
O=C1c2cccc3cccc(c23)C(=O)N1CCCCCCCCn1ccnc1 [2-[8-(1H-Imidazol-1-yl)octyl]-1H-benz[de]isoquinoline-1,3(2H)-dione] |  | 98% | 
O=C1c2cccc3cc([N+](=O)[O-])cc(c23)C(=O)N1CCc1cccnc1 [5-Nitro-2-[2-(3-pyridinyl)ethyl]-1 --H--benz[de]isoquinoline-1,3(2 --H)--dione] |  | 94% | 
O=C1c2cccc3cc([N+](=O)[O-])cc(c23)C(=O)N1CCCn1cncn1 [5-Nitro-2-[3-(1 --H--1,2,4-triazol-1-yl)propyl]-1 --H--benz[de]isoquinoline-1,3(2 --H)--dione] | 127 mm Hg | 94% | 
O=C1c2cccc3cc([N+](=O)[O-])cc(c23)C(=O)N1CCCn1ccnc1-c1ccccc1 [5-Nitro-2-[3-(2-phenyl-1 --H--imidazol-1-yl)propyl]-1 --H-- benz[de]-isoquinoline-1,3(2 --H)--dione] |  | 89% | 
O=C1c2cccc3cc([N+](=O)[O-])cc(c23)C(=O)N1CCCCc1cccnc1 [5-nitro-2-[4-(3-pyridinyl)butyl]-1 --H--benz[de]isoquinoline-1,3(2 --H)--dione] |  | 94% | 
Nc1ccc2c3c(cccc13)C(=O)N(CCCCn1ccnc1)C2=O [6-Amino-2-[4-(1 --H--imidazol-1-yl)butyl]-1 --H--benz[de]isoquinoline-1,3-(2 --H)--dione dihydrochloride] | 115 mm Hg | 96% | 
O=C1c2cccc3c(Cl)ccc(c23)C(=O)N1CCCn1ccnc1 [6-Chloro-2-[3(1 --H--imidazol-1-yl)-propyl]-1 --H--benz[de]isoquinoline-1,3(2 --H)--dione monohydrochloride] |  | 95% | 
O=C1c2cccc3c(Cl)ccc(c23)C(=O)N1CCCCn1ccnc1 [6-Chloro-2-[4-(1H-imidazol-1-yl)butyl]-1H-benz[de]isoquinoline-1,3(2H)-dione monohydrochloride] |  | 96% | 
O=C1c2cccc3c(Cl)ccc(c23)C(=O)N1CCCCCn1ccnc1 [6-Chloro-2-[5-(1 --H--imidazol-1-yl)pentyl]-1 --H--benz[de]isoquinoline-1,3-(2 --H)--dione] |  | 94% | 
CCCCC[C@H](O)/C=C/[C@@H]1[C@H]2C/C(=C/CCCC(=O)O)O[C@H]2C[C@H]1O [PGI2, Prostacyclin] |  |  | effects on ischemic myocardium (ischemic myocardium): beneficial effects
CCCCC[C@H](O)/C=C/[C@H]1O[C@H]2C[C@H](O2)[C@@H]1C/C=C\CCCC(=O)O [TXA2, thromboxane A2] |  |  | effect of injection into coronary arteries [2]: causes myocardial ischemia and subendocardial necrosis
